Structures can show the parent of a compound that is named as a salt. Where two headings read alike, the source gives them in different places.
System: POL (peroxidase of sycamore fig latex)
Assay: spectrophotometric peroxidase assay, substrate variation
Format: biochemical, Ficus sycomorus
Details: co-substrate H2O2, free enzyme, standard assay pH 5.5, room temperature (28-30°C)
Source text: spectrophotometric peroxidase assay, substrate variation on POL (peroxidase of sycamore fig latex)

Cc1cc(-c2cc(C)c(N)c(C)c2)cc(C)c1N [3,3`,5,5`tetramethylbenzidine]
Km (read-out: Km (mM substrates) / TMB): 7 ± 0.8 mM

Nc1ccccc1N [o-phenylenediamine dihydrochloride]
Km (read-out: Km (mM substrates) / OPD): 5.8 ± 0.4 mM

CCn1c(=NN=c2sc3cc(S(=O)(=O)O)ccc3n2CC)sc2cc(S(=O)(=O)O)ccc21 [ABTS]
Km (read-out: Km (mM substrates) / ABTS): 4.5 ± 0.5 mM

Oc1ccc(Cl)c2ccccc12 [4-chloro-1-naphthol]
Km (read-out: Km (mM substrates) / 4C-1N): 5 ± 0.6 mM

From paper PMC6247892, “Ficus sycomorus latex: An efficient alternative Egyptian source for horseradish peroxidase in labeling with antibodies for immunodiagnostic kits” (Veterinary World, 2018)
